Experimental data reported in patent EP4786487A1, “PEPTIDE” (Peptidream Inc, priority 2023, dated 2025).
Positions of bridges follow the written chain, without caps; N, C: chain ends. Non-standard residues stand in square brackets, D forms with d. Residues, ends and D or L forms follow the SMILES beside them. NMeF = CN[C@@H](Cc1ccccc1)C(=O)O; Gly(N(CH2)3NH2) = NCCCNCC(=O)O; NMeC = CN[C@@H](CS)C(=O)O; NMeA = CN[C@@H](C)C(=O)O; Dap = NC[C@H](N)C(=O)O; Sar = CNCC(=O)O

Tests used:
[1] = target: T1, Myostatin (Homo sapiens, UniProt O14793); test: HepG2 reporter gene assay, Evaluation Procedure (2): 2-concentrations assay, myostatin inhibition; type: cell-based; settings: Myostatin 10 ng/mL, HepG2; for inhibition at 0.03 µM: peptide 30nM, read-out: Myostatin Inhibition 30nM; for inhibition at 0.1 µM: peptide 100nM, read-out: Myostatin Inhibition 100nM
T1 construct: active myostatin (also called mature myostatin) is a homodimer consisting of two C-terminal growth factor domains; purchased R&D systems 788-G8/CF
T1 sequence (O14793 267-375): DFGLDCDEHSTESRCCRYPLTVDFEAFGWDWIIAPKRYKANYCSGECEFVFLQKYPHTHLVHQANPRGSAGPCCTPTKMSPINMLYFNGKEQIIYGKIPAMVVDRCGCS
Experimental: (§1) The pGL3(CAGA)12-luc plasmid, namely a pGL3 vector (E1751, Promega) having a luciferase gene inserted downstream of a promoter sequence with 12 CAGA repeats attached, was transfected into HepG2 cell line (HB-8065, ATCC). The culture of HepG2 cell line (HB-8065, ATCC) was performed as in the Evaluation Procedure (1).
(§2) Myostatin (788-G8/CF, R&D systems) or GDF-11 (1958-GD-G8/CF, R&D systems) was added at a final concentration of 10 ng/mL. […] At this time, blank wells, in which neither myostatin, GDF-11, nor each peptide was added, were also prepared and incubated in a CO2 incubator (37°C, 5% CO2) for 20 to 24 hours.
(§3) The medium containing the cells was removed, and a mixture containing PBS (14190144, Thermo) and a chromogenic substrate One-Glo Luciferase Assay System (E6120, Promega) at a ratio of 1:1 was added to each well at 100 µL/well. This was stirred with a plate shaker for 5 min and transferred to a 384-well plate (3570, Corning) at a volume of 20 µL/well.
(§4) The plate was centrifuged at 1,000 × g for 1 min and the luminescence signal (700 nm luminescence) was measured using a plate reader (Envision 2104, PerkinElmer). Based on the measurement results, the inhibition rate at each peptide concentration was calculated. […]

[2] = target: T2, GDF-11 (Homo sapiens, UniProt O95390); test: HepG2 reporter gene assay, Evaluation Procedure (2): 2-concentrations assay, GDF-11 inhibition; type: cell-based; settings: GDF-11 10 ng/mL; for inhibition at 0.03 µM: HepG2, peptide 30nM, read-out: GDF11 Inhibition 30nM; for inhibition at 0.1 µM: HepG2, peptide 100nM, read-out: GDF11 Inhibition 100nM
T2 construct: purchased R&D systems 1958-GD-G8/CF
T2 sequence (O95390 299-407): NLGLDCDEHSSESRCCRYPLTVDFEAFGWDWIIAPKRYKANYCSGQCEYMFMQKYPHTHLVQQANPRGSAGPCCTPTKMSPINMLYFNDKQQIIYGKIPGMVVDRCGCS
Experimental: as §1, §2, §3, §4

Row | SMILES | inhibition at 0.03 µM [1] | inhibition at 0.1 µM [1] | inhibition at 0.03 µM [2] | inhibition at 0.1 µM [2]
1 | CC[C@H](C)[C@@H]1NC(=O)[C@H](Cc2ccccc2)N(C)C(=O)[C@H](Cc2ccc(O)cc2)NC(=O)[C@H](Cc2c[nH]c3ccccc23)NC(=O)[C@H](CCCNC(=N)N)NC(=O)CN(CCCN)C(=O)CSC[C@@H](C(N)=O)NC(=O)[C@H](Cc2ccccc2)N(C)C(=O)[C@H](C)N(C)C(=O)[C@H](CC(C)C)NC(=O)[C@H](Cc2ccccc2)N(C)C(=O)[C@H](CCCNC(=N)N)NC(=O)[C@H](Cc2ccc(O)cc2)NC(=O)[C@H](Cc2ccc(O)cc2)NC(=O)CN(C)C1=O [Myostatin_000099_01ApG] ({CH2CO}-[Gly(N(CH2)3NH2)]RWY[NMeF]I[Sar]YYR[NMeF]L[NMeA][NMeF]C-NH2; thioether N-15) | 19% | 65% | 0% | 0%
2 | CC[C@H](C)[C@@H]1NC(=O)[C@H](Cc2ccccc2)N(C)C(=O)[C@H](Cc2ccc(O)cc2)NC(=O)[C@H](Cc2c[nH]c3ccccc23)NC(=O)[C@H](CCCNC(=N)N)NC(=O)[C@H](CN)NC(=O)CSC[C@@H](C(N)=O)NC(=O)[C@H](Cc2ccccc2)N(C)C(=O)[C@H](C)N(C)C(=O)[C@H](CC(C)C)NC(=O)[C@H](Cc2ccccc2)N(C)C(=O)[C@H](CCCNC(=N)N)NC(=O)[C@H](Cc2ccc(O)cc2)NC(=O)[C@H](Cc2ccc(O)cc2)NC(=O)CN(C)C1=O [Myostatin_000099_01Dap] ({CH2CO}-[Dap]RWY[NMeF]I[Sar]YYR[NMeF]L[NMeA][NMeF]C-NH2; thioether N-15) | 18% | 62% | 0% | 0%
3 | CC[C@H](C)[C@@H]1NC(=O)[C@H](Cc2ccccc2)N(C)C(=O)[C@H](Cc2ccc(O)cc2)NC(=O)[C@H](Cc2c[nH]c3ccccc23)NC(=O)[C@H](CCCNC(=N)N)NC(=O)[C@H](C)N(C)C(=O)CSC[C@@H](C(N)=O)NC(=O)[C@H](Cc2ccccc2)N(C)C(=O)[C@H](C)N(C)C(=O)[C@H](CC(C)C)NC(=O)[C@H](Cc2ccccc2)N(C)C(=O)[C@H](CCCNC(=N)N)NC(=O)[C@H](Cc2ccc(O)cc2)NC(=O)[C@H](Cc2ccc(O)cc2)NC(=O)CN(C)C1=O [Myostatin_000099_01meA] ({CH2CO}-[NMeA]RWY[NMeF]I[Sar]YYR[NMeF]L[NMeA][NMeF]C-NH2; thioether N-15) | 55% | 82% | 0% | 0%
4 | CC[C@H](C)[C@@H]1NC(=O)[C@H](Cc2ccccc2)N(C)C(=O)[C@H](Cc2ccc(O)cc2)NC(=O)[C@H](Cc2c[nH]c3ccccc23)NC(=O)[C@H](C)NC(=O)[C@H](C)NC(=O)CSC[C@@H](C(N)=O)NC(=O)[C@H](Cc2ccccc2)N(C)C(=O)[C@H](C)N(C)C(=O)[C@H](CC(C)C)NC(=O)[C@H](Cc2ccccc2)N(C)C(=O)[C@H](CCCNC(=N)N)NC(=O)[C@H](Cc2ccc(O)cc2)NC(=O)[C@H](Cc2ccc(O)cc2)NC(=O)CN(C)C1=O [Myostatin_000099_02A] ({CH2CO}-AAWY[NMeF]I[Sar]YYR[NMeF]L[NMeA][NMeF]C-NH2; thioether N-15) | 64% | 89% | 0% | 5%
5 | CC[C@H](C)[C@@H]1NC(=O)[C@H](Cc2ccccc2)N(C)C(=O)[C@H](Cc2ccc(O)cc2)NC(=O)[C@H](Cc2c[nH]c3ccccc23)NC(=O)[C@H](CN)NC(=O)[C@H](C)NC(=O)CSC[C@@H](C(N)=O)NC(=O)[C@H](Cc2ccccc2)N(C)C(=O)[C@H](C)N(C)C(=O)[C@H](CC(C)C)NC(=O)[C@H](Cc2ccccc2)N(C)C(=O)[C@H](CCCNC(=N)N)NC(=O)[C@H](Cc2ccc(O)cc2)NC(=O)[C@H](Cc2ccc(O)cc2)NC(=O)CN(C)C1=O [Myostatin_000099_02Dap] ({CH2CO}-A[Dap]WY[NMeF]I[Sar]YYR[NMeF]L[NMeA][NMeF]C-NH2; thioether N-15) | 50% | 82% | 0% | 2%
6 | CC[C@H](C)[C@@H]1NC(=O)[C@H](Cc2ccccc2)N(C)C(=O)[C@H](Cc2ccc(O)cc2)NC(=O)[C@H](Cc2c[nH]c3ccccc23)NC(=O)[C@H](CCC(=O)O)NC(=O)[C@H](C)NC(=O)CSC[C@@H](C(N)=O)NC(=O)[C@H](Cc2ccccc2)N(C)C(=O)[C@H](C)N(C)C(=O)[C@H](CC(C)C)NC(=O)[C@H](Cc2ccccc2)N(C)C(=O)[C@H](CCCNC(=N)N)NC(=O)[C@H](Cc2ccc(O)cc2)NC(=O)[C@H](Cc2ccc(O)cc2)NC(=O)CN(C)C1=O [Myostatin_000099_02E] ({CH2CO}-AEWY[NMeF]I[Sar]YYR[NMeF]L[NMeA][NMeF]C-NH2; thioether N-15) | 58% | 83% | 0% | 9%

Continued, values first:

Row | inhibition at 0.03 µM [1] | inhibition at 0.1 µM [1] | inhibition at 0.03 µM [2] | inhibition at 0.1 µM [2] | SMILES
7 | 35% | 73% | 0% | 0% | CC[C@H](C)[C@@H]1NC(=O)[C@H](Cc2ccccc2)N(C)C(=O)[C@H](Cc2ccc(O)cc2)NC(=O)[C@H](Cc2c[nH]c3ccccc23)NC(=O)[C@H](CCCCN)NC(=O)[C@H](C)NC(=O)CSC[C@@H](C(N)=O)NC(=O)[C@H](Cc2ccccc2)N(C)C(=O)[C@H](C)N(C)C(=O)[C@H](CC(C)C)NC(=O)[C@H](Cc2ccccc2)N(C)C(=O)[C@H](CCCNC(=N)N)NC(=O)[C@H](Cc2ccc(O)cc2)NC(=O)[C@H](Cc2ccc(O)cc2)NC(=O)CN(C)C1=O [Myostatin_000099_02K] ({CH2CO}-AKWY[NMeF]I[Sar]YYR[NMeF]L[NMeA][NMeF]C-NH2; thioether N-15)
8 | 94% | 98% | 15% | 48% | CC[C@H](C)[C@@H]1NC(=O)[C@H](Cc2ccccc2)N(C)C(=O)[C@H](Cc2ccc(O)cc2)NC(=O)[C@H](Cc2c[nH]c3ccccc23)NC(=O)[C@@H](C)NC(=O)[C@H](C)NC(=O)CSC[C@H](C(N)=O)NC(=O)[C@H](Cc2ccccc2)N(C)C(=O)[C@H](C)N(C)C(=O)[C@H](CC(C)C)NC(=O)[C@H](Cc2ccccc2)N(C)C(=O)[C@H](CCCNC(=N)N)NC(=O)[C@H](Cc2ccc(O)cc2)NC(=O)[C@H](Cc2ccc(O)cc2)NC(=O)CN(C)C1=O [Myostatin_99_2da_15dc_NH2] ({CH2CO}-A[dA]WY[NMeF]I[Sar]YYR[NMeF]L[NMeA][NMeF][dC]-NH2; thioether N-15)
9 | 69% | 89% | 0% | 12% | CC[C@H](C)[C@@H]1NC(=O)[C@H](Cc2ccccc2)N(C)C(=O)[C@H](Cc2ccc(O)cc2)NC(=O)[C@H](Cc2c[nH]c3ccccc23)NC(=O)[C@H](CCCNC(=N)N)NC(=O)[C@H](C)NC(=O)CSC[C@H](C(N)=O)NC(=O)[C@H](Cc2ccccc2)N(C)C(=O)[C@H](C)N(C)C(=O)[C@H](CC(C)C)NC(=O)[C@H](Cc2ccccc2)N(C)C(=O)[C@H](CCCNC(=N)N)NC(=O)[C@H](Cc2ccc(O)cc2)NC(=O)[C@H](Cc2ccc(O)cc2)NC(=O)CN(C)C1=O [Myostatin_000099_15dc] ({CH2CO}-ARWY[NMeF]I[Sar]YYR[NMeF]L[NMeA][NMeF][dC]-NH2; thioether N-15)
10 | 50% | 75% | 0% | 4% | CC[C@H](C)[C@@H]1NC(=O)[C@H](Cc2ccccc2)N(C)C(=O)[C@H](Cc2ccc(O)cc2)NC(=O)[C@H](Cc2c[nH]c3ccccc23)NC(=O)[C@H](CCCNC(=N)N)NC(=O)[C@H](C)NC(=O)CSC[C@@H](C(N)=O)N(C)C(=O)[C@H](Cc2ccccc2)N(C)C(=O)[C@H](C)N(C)C(=O)[C@H](CC(C)C)NC(=O)[C@H](Cc2ccccc2)N(C)C(=O)[C@H](CCCNC(=N)N)NC(=O)[C@H](Cc2ccc(O)cc2)NC(=O)[C@H](Cc2ccc(O)cc2)NC(=O)CN(C)C1=O [Myostatin_000099_15meC] ({CH2CO}-ARWY[NMeF]I[Sar]YYR[NMeF]L[NMeA][NMeF][NMeC]-NH2; thioether N-15)
11 | 56% | 83% | 0% | 11% | CC[C@H](C)[C@@H]1NC(=O)[C@H](Cc2ccccc2)N(C)C(=O)[C@H](Cc2ccc(O)cc2)NC(=O)[C@H](Cc2c[nH]c3ccccc23)NC(=O)[C@H](CCCNC(=N)N)NC(=O)[C@H](C)NC(=O)CSC[C@@H](C(=O)N[C@@H](CN)C(N)=O)NC(=O)[C@H](Cc2ccccc2)N(C)C(=O)[C@H](C)N(C)C(=O)[C@H](CC(C)C)NC(=O)[C@H](Cc2ccccc2)N(C)C(=O)[C@H](CCCNC(=N)N)NC(=O)[C@H](Cc2ccc(O)cc2)NC(=O)[C@H](Cc2ccc(O)cc2)NC(=O)CN(C)C1=O [Myostatin_000099_16Dap] ({CH2CO}-ARWY[NMeF]I[Sar]YYR[NMeF]L[NMeA][NMeF]C[Dap]-NH2; thioether N-15)
